Values quoted from earlier work as cited in patent US20050152989A1, “Method for treating irritable bowel syndrome” (Braintree Laboratories, Inc., priority 2003, published 2005).

Key:
[1] = tested on: IBS
[2] = tested on: constipation-predominant IBS; conditions: Case Study 2, patient history before the formulation

Compound: Cc1[nH]cnc1CN1CCc2c(c3ccccc3n2C)C1=O [alosetron]
- toxicity limiting use ([1]; diarrhea-predominant IBS): severely limited by its toxicity

Compound: COc1cc(N)c(Cl)cc1C(=O)NC1CCN(CCCOc2ccc(F)cc2)CC1OC (stereo not drawn) [cisapride]
- outcome of earlier treatment regimens tried by the patient [2]: without success

Compound: [H]/N=C(/NCCCCC)N/N=C/c1c[nH]c2ccc(OC)cc12 [tegaserod]
- patients with significant improvement in IBS symptoms compared with placebo ([1]; constipation-predominant IBS): about one of eight
